Publication PMC4897628, “CRF receptor 1 antagonism and brain distribution of active components contribute to the ameliorative effect of rikkunshito on stress-induced anorexia” (Scientific Reports, 2016)

Columns and labels:
[1] = biological target: T1, CRFR1 (human CRF receptor 1, corticotropin-releasing factor receptor 1) (Homo sapiens, UniProt P34998); test: HTRF cAMP assay, antagonist mode, transfected CHO cells; KB from IC50 by modified Cheng-Prusoff equation; type: cell-based
T1 construct: gene CRHR1; receptor expressed in transfected CHO cells (Cerep)
T1 sequence (P34998 24-415): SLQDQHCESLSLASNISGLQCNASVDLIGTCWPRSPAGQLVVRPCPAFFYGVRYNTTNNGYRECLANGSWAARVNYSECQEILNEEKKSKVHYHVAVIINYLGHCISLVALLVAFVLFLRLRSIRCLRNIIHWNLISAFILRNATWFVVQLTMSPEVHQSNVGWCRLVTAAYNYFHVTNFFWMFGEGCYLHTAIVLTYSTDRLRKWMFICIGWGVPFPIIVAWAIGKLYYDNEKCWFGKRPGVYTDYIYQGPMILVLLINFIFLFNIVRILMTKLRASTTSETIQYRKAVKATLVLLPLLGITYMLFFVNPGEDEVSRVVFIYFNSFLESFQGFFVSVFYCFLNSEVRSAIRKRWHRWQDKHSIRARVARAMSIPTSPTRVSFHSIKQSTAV
Excerpt: HTRF cAMP assay, antagonist mode, transfected CHO cells; KB from IC50 by modified Cheng-Prusoff equation on CRFR1 (human CRF receptor 1, corticotropin-releasing factor receptor 1)

[2] = biological target: T1, CRFR1 (human CRF receptor 1, corticotropin-releasing factor receptor 1); test: HTRF cAMP assay, antagonist mode, transfected CHO cells; type: cell-based
Excerpt: HTRF cAMP assay, antagonist mode, transfected CHO cells on CRFR1 (human CRF receptor 1, corticotropin-releasing factor receptor 1)

Row | SMILES | Kb [1] | IC50 [2]
1 | COc1ccc(-c2cc(=O)c3c(OC)c(OC)c(OC)c(OC)c3o2)cc1OC [Nobiletin] | 0.36 µM | 15 µM
2 | O=C(/C=C/c1ccc(O)cc1)c1ccc(O)cc1O [Isoliquiritigenin] | 0.67 µM | 28 µM
3 | COc1ccc([C@@H]2CC(=O)c3c(O)cc(O)cc3O2)cc1O [Hesperetin] | 45 µM | 130 µM
4 | CCCCCCC/C=C/C(=O)CCc1ccc(O)c(OC)c1 [[8]-Shogaol] | 1.8 µM | 74 µM
5 | CC1(C)[C@@H](O)CC[C@]2(C)[C@H]3C(=O)C=C4[C@@H]5C[C@@](C)(C(=O)O)CC[C@]5(C)CC[C@@]4(C)[C@]3(C)CC[C@@H]12 [Glycyrrhetic acid] | 0.35 µM | 14 µM
6 | COc1ccc(-c2cc(=O)c3c(OC)c(OC)c(OC)c(OC)c3o2)cc1 [Tangeretin] | 1.5 µM | 60 µM
7 | COc1c(CC=C(C)C)c(O)cc2oc(=O)c(-c3ccc(O)cc3O)cc12 [Glycycoumarin] | 1.3 µM | 52 µM
